Test results as given in BindingDB's records for doi:10.1021/bi5004519 (University of Pennsylvania, 2014).

Assays:
Arginase [1] = molecular target: T1, Arginase (Schistosoma mansoni, UniProt Q6WVP6); experiment: ITC; settings: pH 8.5
T1 sequence (Q6WVP6 whole entry): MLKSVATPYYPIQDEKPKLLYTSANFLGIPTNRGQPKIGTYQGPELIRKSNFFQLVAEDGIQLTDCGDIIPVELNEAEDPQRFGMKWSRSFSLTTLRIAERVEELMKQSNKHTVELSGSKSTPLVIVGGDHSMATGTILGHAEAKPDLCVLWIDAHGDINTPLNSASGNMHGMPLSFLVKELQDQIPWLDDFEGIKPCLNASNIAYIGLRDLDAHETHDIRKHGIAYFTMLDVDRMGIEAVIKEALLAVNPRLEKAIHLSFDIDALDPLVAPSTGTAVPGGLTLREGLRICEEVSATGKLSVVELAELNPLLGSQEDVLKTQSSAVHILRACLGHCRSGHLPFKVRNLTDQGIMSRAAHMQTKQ
Procedure: SmARG was dialyzed against 50 mM bicine (pH 8.5), 100 μM MnCl2, and 1.0 mM TCEP [5% (v/v) DMSO was included in the dialysis buffer when SmARG was titrated with ABH-PE and ABH-DP]. The inhibitor (ABH, 0.547 mM; NOHA, 1.097 mM; nor-NOHA, 0.443 mM; ABH-PE, 0.410 mM; ABH-DP, 0.436 mM) was dissolved in dialysis buffer.

Arginase [2] = molecular target: T1, Arginase; experiment: Archibald assay; settings: pH 8.5
Procedure: Briefly, 0.5-50 mM L-arginine (pH 8.5) was added to a solution of 50 mM 4-(2-hydroxyethyl)piperazine-1-propanesulfonic acid (EPPS) (pH 8.5) and 100 μM MnCl2. The reaction (200 μL) was initiated by adding 1 μM SmARG at 21°C and terminated after 1 min using 30 μL of a 3:1 (v/v) concentrated acid/dye solution.

Structure (SMILES) | Kd (Arginase [1]) | Ki (Arginase [2])
N[C@@](CCCCB(O)O)(C(=O)O)C1CCN(Cc2ccc(Cl)c(Cl)c2)CC1 [(R)-2-amino-6-borono-2-[1-(3,4-dichlorobenzyl)piperidin-4-yl]hexanoic acid (ABH-DP)] | 540 nM | –
N[C@](CCCCB(O)O)(CCN1CCCCC1)C(=O)O | 260 nM | –
N[C@@H](CCCCB(O)O)C(=O)O [2(S)-amino-6-boronohexanoic acid (ABH)] | 1300 nM | 1800 nM
